Patent US20240132431A1, “METHOD FOR ALKYLATING ACIDIC FUNCTIONAL GROUP” (Chugai Seiyaku Kabushiki Kaisha, priority 2021, published 2024)

Target: T1, Bcl-2 protein (Recombinant Human Bcl-2 Protein) (Homo sapiens, UniProt P10415)
T1 construct: purchased Novus NBP2-34889
Experiment: Binding evaluation of mixture library compounds to Bcl-2 using AS-MS (affinity selection mass spectrometry)
Settings: for ASMS ratio (%) n = 1 / ASMS ratio (%) n = 2: ASMS Ratio(%)=(A−C)/B×100; for ASMS ratio (%) n = 1: replicate n = 1; for ASMS ratio (%) n = 2: replicate n = 2
Outline: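 Readout is ASMS Ratio (%), (A−C)/B×100, from reversed-phase LC/MS of SEC-passed extracts, with protein-free unfiltered standard (B) and protein-free SEC blank (C). Recombinant human Bcl-2 at 20 μM final met ~1200 pooled compounds at […] each for 1 h, 23° C., dark, in Tris-HCl pH 7.4 buffer.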

[1] = AS-MS, mixture of 1200 compounds, Bcl-2
[2] = AS-MS on the mixture of 1200 library compounds

T1 sequence (P10415 whole entry): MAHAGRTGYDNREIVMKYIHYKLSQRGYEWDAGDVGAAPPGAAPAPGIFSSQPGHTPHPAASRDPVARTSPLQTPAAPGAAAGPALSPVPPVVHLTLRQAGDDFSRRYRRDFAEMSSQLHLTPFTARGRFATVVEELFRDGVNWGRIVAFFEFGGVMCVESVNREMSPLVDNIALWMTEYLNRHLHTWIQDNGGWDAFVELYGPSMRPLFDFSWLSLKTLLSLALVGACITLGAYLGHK

Compound: CCOc1cccc(-c2ccc(C(=O)N3CCN(c4ccc(C(=O)NS(=O)(=O)C(C)(C)C)nn4)CC3)cc2C)c1 [B2L003-01, N-tert-Butylsulfonyl-6-[4-[4-(3-ethoxyphenyl)-3-methylbenzoyl]piperazin-1-yl]pyridazine-3-carboxamide]
- ASMS ratio (%) (n = 1): 0.0%
- ASMS ratio (%) (n = 2): 0.0%

Compound: CCOc1cccc(-c2ccc(C(=O)N3CCN(c4ccc(C(=O)NCC56CC7CC(CC(C7)C5)C6)nn4)CC3)cc2F)c1 [B1A005-01, N-(1-Adamantylmethyl)-6-[4-[4-(3-ethoxyphenyl)-3-fluorobenzoyl]piperazin-1-yl]pyridazine-3-carboxamide]
- ASMS ratio (%) n = 1 [1]: 7.0%
- ASMS ratio (%) n = 2 [1]: −10.7%

Compound: CCOc1cncc(-c2ccccc2CCC(=O)N2CCN(c3ccc(C(=O)NCC45CC6CC(CC(C6)C4)C5)cc3)CC2)c1 [B1A034-01, N-(1-Adamantylmethyl)-4-[4-[3-[2-(5-ethoxypyridin-3-yl)phenyl]propanoyl]piperazin-1-yl]benzamide]
- ASMS ratio (%) n = 1 [1]: 5.2%
- ASMS ratio (%) n = 2 [1]: −3.2%

Compound: CCOc1cncc(-c2cc(OC)c(CN3CCN(c4ccc(C(=O)NCC(F)(F)F)cc4)CC3)c(OC)c2)c1 [B1K060-01]
- ASMS ratio (%) n = 1 [1]: 0.0%
- ASMS ratio (%) n = 2 [1]: 0.0%

Compound: 6-[4-[4-(3-Ethoxyphenyl)-3-methylbenzoyl]piperazin-1-yl]-N-propylpyridazine-3-carboxamide [B1M036-01]
- ASMS ratio (%) n = 1 [1]: 6.7%
- ASMS ratio (%) n = 2 [1]: −1.2%

Compound: CCOc1cncc(C#Cc2ccccc2C(=O)N2CCN(c3ccc(C(=O)N(CC)CC)cc3)CC2)c1 [B4J030-01, 4-[4-[2-[2-(5-Ethoxypyridin-3-yl)ethynyl]benzoyl]piperazin-1-yl]-N,N-diethylbenzamide]
- ASMS ratio (%) n = 1 [2]: 0.1%
- ASMS ratio (%) n = 2 [2]: 0.8%

Compound: 6-[4-[4-(3-Ethoxyphenyl)naphthalene-1-carbonyl]piperazin-1-yl]-N-propylpyridazine-3-carboxamide [B1M071-01]
- ASMS ratio (%) n = 1 [1]: 34.0%
- ASMS ratio (%) n = 2 [1]: 24.4%

Compound: CCOc1cncc(C#Cc2cc(C(=O)N3CCN(c4ccc(C(=O)NS(=O)(=O)CCC(F)(F)F)nn4)CC3)cc(C(F)(F)F)c2)c1 [B2N020-01, 6-[4-[3-[2-(5-Ethoxypyridin-3-yl)ethynyl]-5-(trifluoromethyl)benzoyl]piperazin-1-yl]-N-(3,3,3-trifluoropropylsulfonyl)pyridazine-3-carboxamide]
- ASMS ratio (%) (n = 1): 0.0%
- ASMS ratio (%) (n = 2): 0.0%

Compound: CCOc1cncc(-c2ccc(CN3CCN(c4ccc(C(=O)Nc5ccc(OC)cc5)cc4)CC3)c(CC)c2)c1 [B1O050-01]
- ASMS ratio (%) n = 1 [2]: 10.3%
- ASMS ratio (%) n = 2 [2]: −5.8%

Compound: CCOc1cncc(-c2ccc(C(=O)N3CCN(c4ccc(C(=O)N(CC)CC)cc4)CC3)cc2F)c1 [B4J028-01, 4-[4-[4-(5-Ethoxypyridin-3-yl)-3-fluorobenzoyl]piperazin-1-yl]-N,N-diethylbenzamide]
- ASMS ratio (%) n = 1 [2]: −1.0%
- ASMS ratio (%) n = 2 [2]: 0.9%

Compound: CCOc1cncc(C#Cc2cc(C(=O)N3CCN(c4ccc(C(=O)Nc5ccc(OC)cc5)cc4)CC3)cc(C(F)(F)F)c2)c1 [B1O042-01, 4-[4-[3-[2-(5-Ethoxypyridin-3-yl)ethynyl]-5-(trifluoromethyl)benzoyl]piperazin-1-yl]-N-(4-methoxyphenyl)benzamide]
- ASMS ratio (%) n = 1 [2]: 2.8%
- ASMS ratio (%) n = 2 [2]: 2.1%

Compound: CCOc1cccc(-c2ccc(C(=O)N3CCN(c4ccc(C(=O)NS(=O)(=O)C(C)(C)C)cc4)CC3)c3ccccc23)c1 [B2L035-01, N-tert-Butylsulfonyl-4-[4-[4-(3-ethoxyphenyl)naphthalene-1-carbonyl]piperazin-1-yl]benzamide]
- ASMS ratio (%) (n = 1): 0.0%

Compound: 4-[4-[1-[4-(5-Ethoxypyridin-3-yl)-2-fluorophenyl]ethyl]piperazin-1-yl]-N-propylbenzamide [B1M006-01]
- ASMS ratio (%) n = 1 [1]: 0.0%
- ASMS ratio (%) n = 2 [1]: 0.0%

Compound: CCOc1cncc(-c2ccc(C(C)N3CCN(c4ccc(C(=O)NS(=O)(=O)CC56CC7CC(CC(C7)C5)C6)cc4)CC3)cc2)c1 (centres unmarked) [B2A098-01, N-(1-Adamantylmethylsulfonyl)-4-[4-[1-[4-(5-ethoxypyridin-3-yl)phenyl]ethyl]piperazin-1-yl]benzamide]
- ASMS ratio (%) n = 1 (AS-MS, mixture library, Bcl-2): 18.2%
- ASMS ratio (%) n = 2 (AS-MS, mixture library, Bcl-2): 2.1%

Compound: CCOc1cncc(-c2cc(CN3CCN(c4ccc(C(=O)NS(=O)(=O)C(C)(C)C)nn4)CC3)cc(C(F)(F)F)c2)c1 [B2L088-01, N-tert-Butylsulfonyl-6-[4-[[3-(5-ethoxypyridin-3-yl)-5-(trifluoromethyl)phenyl]methyl]piperazin-1-yl]pyridazine-3-carboxamide]
- ASMS ratio (%) (n = 1): 0.0%
- ASMS ratio (%) (n = 2): 2.8%

Compound: CCOc1cncc(-c2ccc(CN3CCN(c4ccc(C(=O)N(C)CC56CC7CC(CC(C7)C5)C6)nn4)CC3)c(CC)c2)c1 [B3A076-01, N-(1-Adamantylmethyl)-6-[4-[[4-(5-ethoxypyridin-3-yl)-2-ethylphenyl]methyl]piperazin-1-yl]-N-methylpyridazine-3-carboxamide]
- ASMS ratio (%) n = 1 [2]: 6.5%
- ASMS ratio (%) n = 2 [2]: −0.9%

Compound: CCOc1cccc(-c2cc(CN3CCN(c4ccc(C(=O)N(CC)CC)nn4)CC3)cc(OC(C)C)c2)c1 [B4J083-01, 6-[4-[[3-(3-Ethoxyphenyl)-5-propan-2-yloxyphenyl]methyl]piperazin-1-yl]-N,N-diethylpyridazine-3-carboxamide]
- ASMS ratio (%) n = 1 (AS-MS, mixture library, Bcl-2): 0.0%
- ASMS ratio (%) n = 2 (AS-MS, mixture library, Bcl-2): 0.0%

Compound: CCOc1cncc(C#Cc2ccccc2C(=O)N2CCN(c3ccc(C(=O)NS(=O)(=O)c4ccc(NCCSc5ccccc5)c([N+](=O)[O-])c4)cc3)CC2)c1 [B2Q030-01, 4-[4-[2-[2-(5-Ethoxypyridin-3-yl)ethynyl]benzoyl]piperazin-1-yl]-N-[3-nitro-4-(2-phenylsulfanylethylamino)phenyl]sulfonylbenzamide]
- ASMS ratio (%) n = 1 (AS-MS, mixture library, Bcl-2): 6.6%
- ASMS ratio (%) n = 2 (AS-MS, mixture library, Bcl-2): −4.1%

Compound: 4-[4-[[2-(3-Ethoxyphenyl)phenyl]methyl]piperazin-1-yl]-N-propylbenzamide [B1M040-01]
- ASMS ratio (%) n = 1 [1]: −0.3%
- ASMS ratio (%) n = 2 [1]: 0.0%

Compound: CCOc1cccc(C#Cc2cncc(C(=O)N3CCN(c4ccc(C(=O)NS(C)(=O)=O)nn4)CC3)c2)c1 [B2I009-01, 6-[4-[5-[2-(3-Ethoxyphenyl)ethynyl]pyridine-3-carbonyl]piperazin-1-yl]-N-methylsulfonylpyridazine-3-carboxamide]
- ASMS ratio (%) n = 1 (AS-MS, mixture library, Bcl-2): 0.0%
- ASMS ratio (%) n = 2 (AS-MS, mixture library, Bcl-2): 0.0%

Compound: CCOc1cncc(-c2ccc(CN3CCN(c4ccc(C(=O)NCC56CC7CC(CC(C7)C5)C6)nn4)CC3)c3ccccc23)c1 [B1A092-01, N-(1-Adamantylmethyl)-6-[4-[[4-(5-ethoxypyridin-3-yl)naphthalen-1-yl]methyl]piperazin-1-yl]pyridazine-3-carboxamide]
- ASMS ratio (%) n = 1 [1]: 2.6%
- ASMS ratio (%) n = 2 [1]: −2.4%

Compound: CCOc1cncc(-c2cc(OC)c(CN3CCN(c4ccc(C(=O)NS(=O)(=O)C(C)(C)C)cc4)CC3)c(OC)c2)c1 [B2L060-01, N-tert-Butylsulfonyl-4-[4-[[4-(5-ethoxypyridin-3-yl)-2,6-dimethoxyphenyl]methyl]piperazin-1-yl]benzamide]
- ASMS ratio (%) (n = 2): 0.0%

Compound: CCOc1cccc(-c2cc(C(=O)N3CCN(c4ccc(C(=O)NS(=O)(=O)C(C)(C)C)nn4)CC3)cc(C(C)(C)C)c2)c1 [B2L015-01, 6-[4-[3-tert-Butyl-5-(3-ethoxyphenyl)benzoyl]piperazin-1-yl]-N-tert-butylsulfonylpyridazine-3-carboxamide]
- ASMS ratio (%) (n = 1): 0.0%
- ASMS ratio (%) (n = 2): 0.0%

Compound: CCOc1cncc(-c2cnn(-c3cc(C(=O)N4CCN(c5ccc(C(=O)NS(=O)(=O)CCC(F)(F)F)cc5)CC4)cc(C(F)(F)F)c3)c2)c1 [B2N044-01, 4-[4-[3-[4-(5-Ethoxypyridin-3-yl)pyrazol-1-yl]-5-(trifluoromethyl)benzoyl]piperazin-1-yl]-N-(3,3,3-trifluoropropylsulfonyl)benzamide]
- ASMS ratio (%) (n = 1): 0.2%
- ASMS ratio (%) (n = 2): 1.4%

Compound: CCOc1cncc(-c2cc(CN3CCN(c4ccc(C(=O)NS(=O)(=O)CC56CC7CC(CC(C7)C5)C6)nn4)CC3)cc(C(F)(F)F)c2)c1 [B2A088-01, N-(1-Adamantylmethylsulfonyl)-6-[4-[[3-(5-ethoxypyridin-3-yl)-5-(trifluoromethyl)phenyl]methyl]piperazin-1-yl]pyridazine-3-carboxamide]
- ASMS ratio (%) n = 1 (AS-MS, mixture library, Bcl-2): 12.0%
- ASMS ratio (%) n = 2 (AS-MS, mixture library, Bcl-2): 14.0%

Compound: CCOc1cncc(C#Cc2cc(C(=O)N3CCN(c4ccc(C(=O)N(CC)CC)nn4)CC3)cc(C(F)(F)F)c2)c1 [B4J020-01, 6-[4-[3-[2-(5-Ethoxypyridin-3-yl)ethynyl]-5-(trifluoromethyl)benzoyl]piperazin-1-yl]-N,N-diethylpyridazine-3-carboxamide]
- ASMS ratio (%) n = 1 [2]: 0.0%
- ASMS ratio (%) n = 2 [2]: 0.0%
